Test results from patent US20240309060A1, “POLYPEPTIDE BAX/NPM INHIBITORS” (TRUSTEES OF BOSTON UNIVERSITY, priority 2023, published 2024).
“Also recorded” adds a separate entry of the source.

System: primary murine proximal tubule epithelial cells (PTEC)
Experiment: MTT cell survival assay of kidney cells after ischemic stress in vitro induced by metabolic inhibitors
Type: cell-based
Settings: for Effect of the residue (single alanine substitution) on cytoprotection / cell survival after ischemic stress: alanine scanning of NPMB1, PTEC, FIG. 2; for Viability of primary murine kidney cells after ischemic stress: ischemic stress induced by metabolic inhibitors, FIGS. 5, 7; for Protection of primary kidney proximal tubule cells from ischemic stress (relative kidney cell survival rate): 70 min ischemic stress, metabolic inhibitors, vs non-specific GFP fragment, normalized to baseline, FIG. 4; for Degree of cytoprotection during ischemic stress: alanine scan and pro-helical mutations
Description: FIG. 2 depicts an NPMB1 Alanine Scan. Relative kidney cell survival rate after 70 min ischemic stress in vitro induced by metabolic inhibitors in the presence of NPMB1 (control) vs. 19 different NPMBx polypeptides with single alanine substitutions (2 additional NPMB1 alanine residues were not substituted). Residue numbers (x axis) reflect Bax sequence that binds human NPM1; Survival data are normalized to NPMB1; post-ischemic kidney cell survival is shown in tertiles: (left-most group: 5-40% survival; middle-group: 55-70% and third group: 80-95%); n=3 separate experiments.
Relative kidney cell survival rate after 70 min ischemic stress in vitro induced by transient exposure to metabolic inhibitors in the presence of NPMB polypeptides (Agents 2, 5, 7, 14 that reflect alanine scan polypeptides A173, A187, A179, A176) vs. a non—specific polypeptide (GFP fragment). Survival data normalized to baseline (no stress); *P<0.01vs. baseline; t P<0.05 vs. stress; data represent 3 separate experiments; error bars represent mean+SD.
FIGS. 13A-13B depict the cytoprotective effects of select therapeutic peptides during ischemic stress in vitro. Primary murine proximal tubule epithelial cells (PTEC) were transiently exposed to metabolic inhibitors for 60 min and allowed to recover for 6 hr. to simulate ischemia in vivo; MTT assay estimated cell survival. “Control” (open bars); is a GFP fragment of similar size to the therapeutic peptides was used a negative control; NPMB1 (prototype) serves as a positive control. […] All peptides contained the nuclear localizing sequence (NLS) to enhance peptide delivery to the kidney, a beta linker and both carboxy-and amino terminal modifications to reduce susceptibility to protease digestion; data are mean+standard error; n=3 separate experiments. Figure discloses SEQ ID NOS 139, 134-135, 128, 127, and 138, respectively, in order of appearance.
Structure activity relationships of NPMB1 derivatives were determined through alanine scanning In these studies, 19 polypeptides were produced using methods shown in FIGS. 8-11 and their effect of kidney cell survival after ischemic stress was characterized using the MTT cell survival assay. Based on determination of relative kidney cell survival rate, polypeptides were grouped according to activity as shown in FIG. 2 (orange: 5-40% survival; blue 55-70% survival, or green 80-95% survival).

| Substance | Effect of the residue (single alanine substitution) on cytoprotection / cell survival after ischemic stress | other results |
| --- | --- | --- |
| Ac-PKKKRKV-Bala-TVTIFAAGVLTASLTIWKKMG-OMe [NPMB1-III-006] | critical for cytoprotection |  |
| Ac-PKKKRKV-Bala-TVTIFVAGVLTASLTIWKKAG-OMe [NPMB1-III-018] | moderate cytoprotective effects |  |
| Ac-PKKKRKV-Bala-TVTIFVAGVLTASLTIWAKMG-OMe [NPMB1-III-016] | critical for cytoprotection |  |
| Ac-PKKKRKV-Bala-TVTIFVAGALTASLTIWKKMG-OMe [NPMB1-III-008] | moderate cytoprotective effects |  |
| Ac-PKKKRKV-Bala-TVTAFVAGVLTASLTIWKKMG-OMe [NPMB1-III-004] | moderate cytoprotective effects |  |
| Ac-PKKKRKV-Bala-TVTIFVAGVLTASATIWKKMG-OMe [NPMB1-III-012] | moderate cytoprotective effects | Viability of primary murine kidney cells after ischemic stress (listed as Agent 12): substantially improve the viability; also recorded: protect against ischemic injury |
| Ac-PKKKRKV-Bala-TVTIFVAGVATASLTIWKKMG-OMe [NPMB1-III-009] | critical for cytoprotection |  |
| Ac-PKKKRKV-Bala-TVAIFVAGVLTASLTIWKKMG-OMe [NPMB1-III-003] | critical for cytoprotection |  |
| Ac-PKKKRKV-Bala-QVTIAVAGVLTASLTIWKKMG-OMe [NPMB1-X-009] |  | Cytoprotective effects during ischemic stress in vitro (peptides 100 nM, metabolic inhibitors 60 min, recovery 6 hr, vs GFP negative control, FIG. 13): most robust protection |
| Ac-PKKKRKV-Bala-TVTIFVAGVLTASLAIWKKMG-OMe [NPMB1-III-013] | moderate cytoprotective effects |  |
| Ac-PKKKRKV-Bala-TVTIFVAGVLTASLTIAKKMG-OMe [NPMB1-III-015] | critical for cytoprotection |  |
| Ac-PKKKRKV-Bala-TVTIFVAAVLTASLTIWKKMG-OMe [NPMB1-III-007] | minimal effect on cell survival | Protection of primary kidney proximal tubule cells from ischemic stress (relative kidney cell survival rate): protect; Degree of cytoprotection during ischemic stress: substantial protection; Viability of primary murine kidney cells after ischemic stress (listed as Agent 7): substantially improve the viability; also recorded: protect against ischemic injury |
| Ac-PKKKRKV-Bala-TATIFVAGVLTASLTIWKKMG-OMe [NPMB1-III-002] | minimal effect on cell survival | Protection of primary kidney proximal tubule cells from ischemic stress (relative kidney cell survival rate): protect; Degree of cytoprotection during ischemic stress: substantial protection; Viability of primary murine kidney cells after ischemic stress (listed as Agent 2): substantially improve the viability; also recorded: protect against ischemic injury |
| Ac-PKKKRKV-Bala-QVTIFVAGVLTASLTIWKKMG-OMe [NPMB1-V-004] |  | Degree of cytoprotection during ischemic stress: highly effective |
| Ac-PKKKRKV-Bala-TVTIFVAGVLTASLTIWKKMA-OMe [NPMB1-III-019] | critical for cytoprotection |  |
| Ac-PKKKRKV-Bala-TVTIFVAGVLTAALTIWKKMG-OMe [NPMB1-III-011] | critical for cytoprotection |  |
| Ac-PKKKRKV-Bala-TVTIAVAGVLTASLTIWKKMG-OMe [NPMB1-III-005] | minimal effect on cell survival | Protection of primary kidney proximal tubule cells from ischemic stress (relative kidney cell survival rate): protect; Degree of cytoprotection during ischemic stress: substantial protection; Viability of primary murine kidney cells after ischemic stress (listed as Agent 5): substantially improve the viability; also recorded: protect against ischemic injury |
| Ac-PKKKRKV-Bala-TVTIFVAGVLAASLTIWKKMG-OMe [NPMB1-III-010] | critical for cytoprotection |  |
